According to paper PMC4533973, “Synthesis and Evaluation of Chloramphenicol Homodimers: Molecular Target, Antimicrobial Activity, and Toxicity against Human Cells” (PLoS ONE, 2015):

What was measured:
[1] = test system: 70S ribosomes from E. coli (23S rRNA); test: Crosslinking of CAM dimers to ribosomes upon 365 nm irradiation; format: binding; conditions: R*I complex, 365 nm light for 30 min, compound at 10×K i
Protocol: Specifically, a mixture of E. coli ribosomes together with either 4 or 5, each added to the incubation mixture at concentration equal to 10×K i, were irradiated for 30 min with 365 nm light. Following purification, the irradiation products were analyzed by primer extension. […] In contrast, compound 4 crosslinked to C2611, without raising any modification signal in the A2058-A2059 region. It should be mentioned that the concentrations used for compounds 4 and 5 in this series of experiments were much lower (<60 μM) than those of CAM utilized previously by Long & Porse. […]
Fig 5 CAM dimer crosslinking at the entrance to the exit tunnel, upon UV-irradiation. […] The irradiation products were analyzed by probing with DMS (panels A and B) or CMCT (panel C) and primer extension, before (lanes 3 and 6) or after discharging from excess CAM dimer (lanes 2 and 5). […]
Following formation of R*I complexes, the samples were irradiated at 365 nm, for 30 min, in a Vilber Lourmat UV Cabinet (VL-215.LC-30W) light source. […] Half of the sample was probed with DMS or CMCT, and then analyzed by primer extension as shown above, while the other half was extracted with phenol, phenol-chloroform (1:1), and chloroform, followed by ethanol precipitation to remove non-crosslinked agents. […]

[2] = test system: human peripheral blood cells; test: Toxicity assays in human peripheral blood cells; format: cell-based
Protocol: Fig 7 Toxicity assays in human peripheral blood cells. Peripheral blood was collected in EDTA-coated tubes from 5 healthy volunteers (age range: 25–30 years). Concentration was adjusted to 1.8×10^9 cells/L using RPMI-1640 medium containing 1% penicillin/streptomycin. Cells were cultured in triplicate in the presence or the absence of 30 or 60 μM CAM or compound 5, under a humidified 5% CO2 atmosphere for 5 days, at 37°C. Cultures were counted daily by a CELL-DYN 3700 Hematology Analyzer and values were expressed as a percentage of cells measured in controls.
Peripheral blood was collected in EDTA-coated tubes from 5 healthy volunteers (age range: 25–30 years). Cell concentration was adjusted to 5×10^8 cells/l using RPMI-1640 medium (GIBCO BRL) containing 1% penicillin/streptomycin. Cells were cultured in triplicate under a humidified 5% CO2 atmosphere for 5 days, at 37°C, in the absence (control cultures) or the presence of CAM or CAM dimers. Counting of cells was performed daily in a CELL-DYN 3700 Hematology Analyzer (Abbott, USA) and values were expressed as a percentage of cells measured in control cultures.

[3] = test system: Jurkat cells; test: Toxicity assays in Jurkat cells (cell counting, necrosis and apoptosis by flow cytometry); format: cell-based, Human
Protocol: Fig 8 Toxicity assays in Jurkat cells. Jurkat cells were adjusted to 1×10^9 cells/L in RPMI-1640 medium containing 1% Penicillin/Streptomycin and 10% fetal bovine serum. The cells were grown in triplicate in the presence or absence of compound 5 at the indicated concentrations for 4 days at 37°C, under a humidified 5% CO2 atmosphere. CAM was used as a reference compound. For cell necrosis and apoptosis assays, samples (10^6 cells) were collected daily and determined by flow cytometry. Apoptotic and necrotic cells were expressed as a percentage of total cells.
(§1) Human leukemic cell lines, HS-Sultan (Burkitt’s lymphoma), Jurkat (T-cell acute lymphoblastic leukemia), and U937 (histiocytic lymphoma), were adjusted to 1×10^9 cells/l in RPMI-1640 medium supplemented with 10% fetal bovine serum and 1% penicillin/streptomycin. The cells were grown in triplicate in the absence (control cultures) or presence of CAM or CAM dimers for 4 days at 37°C, under a humidified 5% CO2 atmosphere. The medium was changed daily; CAM or CAM dimer addition was repeated after medium change. Aliquots were collected daily and counted in a CELL-DYN 3700 Hematology Analyzer. For cell necrosis and apoptosis assays, samples (10^6 cells) were collected and determined using the Annexin V-PE Apoptosis Detection Kit I (BD Pharmingen) for flow cytometry, according to the manufacturers’ instructions. Flow cytometry data were analyzed using the FlowJo flow cytometry analysis software. Necrotic and apoptotic cells were expressed as a percentage of total cells.

[4] = test system: HS-Sultan cells; test: Toxicity assay in leukemic cell line (cell counting); format: cell-based, Human; conditions: daily cell counting
Protocol: as §1
(§2) S4 Fig. Toxicity assays in Human leukemic cell lines. HS-Sultan, Jurkat, and U937 cell lines were adjusted to […] in RPMI-1640 medium containing 1% Penicillin/Streptomycin and 10% fetal bovine serum. […] Aliquots were collected daily and counted in a CELL-DYN 3700 Hematology Analyzer.

[5] = test system: U937 cells; test: as above; format: cell-based, Human; conditions: daily cell counting
Protocol: as §1, §2

O=C(N[C@H](CO)[C@H](O)c1ccc([N+](=O)[O-])cc1)c1ccc(C(=O)N[C@H](CO)[C@H](O)c2ccc([N+](=O)[O-])cc2)cc1 [Compound 5, N^1,N^4-Bis ((1R,2R)-1,3-dihydroxy-1-(4-nitrophenyl)propan-2-yl)-terephthalamide]
nucleoside(s) of 23S rRNA crosslinked [1]: C2610, and less to nucleosides A2058 and A2059 | toxicity against other types of leukocytes [2]: negligible | time of peak toxicity on neutrophils ([2]; 120 h exposure of blood cells): 48 h | toxicity on neutrophils ([2]; 120 h exposure of blood cells, 30 or 60 μM): mild and transient toxicity | apoptosis, expressed as a percentage of total cells ([3]; 60 μM, flow cytometry): 43% | necrosis ([3]; 60 μM, flow cytometry): failed to induce necrosis | growth of Jurkat cells ([3]; daily cell counting, all tested concentrations): the rate of growth was reduced proportionally to the concentration | sensitivity of HS-Sultan cells [4]: insensitive | sensitivity of U937 cells [5]: insensitive
